Data from paper PMC12376244 (Chembiochem, 2025).

Legend:
CmSTC1 = experiment: malachite green phosphate release assay, coupled to yeast pyrophosphatase; assay type: biochemical, Cubamyces menziesii; conditions: 5 mM MgCl2, Tris-HCl/MES/CAPS buffer, pH 7.8; FDP range 3.125 to 50 or 75 μM
CmSTC3 = experiment: as above; assay type: biochemical, Cubamyces menziesii; conditions: 5 mM MgCl2, Tris-HCl/MES/CAPS buffer, pH 7.8; FDP range 3.125 to 50 or 75 μM

Km (CmSTC1): 68.2 µM | Km (CmSTC3): 19.9 µM
Compound: CC(C)=CCC/C(C)=C/CC/C(C)=C/COP(=O)(O)OP(=O)(O)O [FDP]
